Reference: patent US20230278972A1, “SUBSTITUTED HALOALKYL SULFONANILIDE HERBICIDES” (FMC Corporation, priority 2020, published 2023)

Tests used:
Assay type in all cases: in vivo
[1] = test system: goosegrass (Eleusine indica); assay: Test A1 preemergence, goosegrass
Method in brief: (§1)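 Pre: seeds in loam/sand blend, directed soil spray. Post: potted plants, same soil, 2–10 cm, 1–2 leaf stage. Chemicals in non-phytotoxic solvent + surfactant for both.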

soybean (Glycine max) = assay: Test A1 postemergence, soybean; conditions: Postemergence
Method in brief: (§2)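 Test compounds were formulated in a non-phytotoxic solvent mixture containing a surfactant. For preemergence, seeds sown in a loam soil–sand blend received a directed soil spray. For postemergence, potted plants in the same soil, 2 to 10 cm tall at the one- to two-leaf stage, were sprayed.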

kochia (Bassia scoparia) [2] = assay: Test A1 preemergence, kochia
Method in brief: as §1

[3] = test system: Oat, Wild (wild oat, Avena fatua); assay: Test A1 preemergence, Oat, Wild
Method in brief: as §1

kochia (Bassia scoparia) [4] = assay: Test A1 postemergence, kochia; conditions: Postemergence
Method in brief: as §2

[5] = test system: blackgrass (Alopecurus myosuroides); assay: Test A1 preemergence, blackgrass
Method in brief: as §1

[6] = test system: Ryegrass, Italian (Italian ryegrass, Lolium multiflorum); assay: Test A1 postemergence, Ryegrass, Italian; conditions: Postemergence
Method in brief: as §2

[7] = test system: Pigweed, Palmer (palmer amaranth, palmer pigweed, Amaranthus palmeri); assay: Test A1 preemergence, Pigweed, Palmer
Method in brief: as §1

[8] = 31 g ai/ha, 0 to 100 scale (0 no effect, 100 complete control)
[9] = 125 g ai/ha, 0 to 100 scale, 0 no effect, 100 complete control
[10] = 31 g ai/ha, 0 to 100 scale (0 no effect, 100 complete control), 10 days

Compound	Plant response rating, Goosegrass [1, 8]	Plant response rating, Goosegrass [1, 9]	Plant response rating, Soybean (soybean (Glycine max); [10])	Plant response rating, Soybean (soybean (Glycine max); 125 g ai/ha, 0 to 100 scale)	Plant response rating, Kochia (kochia (Bassia scoparia) [2]; [8])	Plant response rating, Kochia (kochia (Bassia scoparia) [2]; [9])	Plant response rating, Oat, Wild [3, 8]	Plant response rating, Oat, Wild [3, 9]	Plant response rating, Kochia (kochia (Bassia scoparia) [4]; [10])	Plant response rating, Kochia (kochia (Bassia scoparia) [4]; 125 g ai/ha, 0 to 100 scale)	Plant response rating, Blackgrass [5, 8]	Plant response rating, Blackgrass [5, 9]	Plant response rating, Ryegrass, Italian [6, 10]	Plant response rating, Ryegrass, Italian ([6]; 125 g ai/ha, 0 to 100 scale)	Plant response rating, Pigweed, Palmer [7, 8]	Plant response rating, Pigweed, Palmer [7, 9]
CCc1cc(C)c(C2=NOC3(CCCC3)C2)cc1NS(=O)(=O)C(F)(F)F [Compound 311]	10	60	10	40	0	0	0	0	0	0	20	40	0	0	30	30
COc1cc(C)c(NS(=O)(=O)C(F)(F)F)cc1C1=NOC2CCCC12 (stereo not drawn) [Compound 312]	0	50	20	20	0	0	0	0	0	0	0	0	0	20	0	0
COC(=O)OCN(c1cc(C2=NOC3CCCC23)c(C)cc1C)S(=O)(=O)C(F)(F)F (stereo not drawn) [Compound 315]	90	100	40	60	0	60	0	20	50	80	20	60	10	70	100	90
Cc1cc(C)c(N(COC(=O)OC(C)(C)C)S(=O)(=O)C(F)(F)F)cc1C1=NOC2CCCC12 (stereo not drawn) [Compound 316]	40	90	10	50	0	50	0	0	30	70	0	0	0	30	40	50
Cc1cc(C)c(N(COC(=O)N(C)C)S(=O)(=O)C(F)(F)F)cc1C1=NOC2CCCC12 (stereo not drawn) [Compound 317]	0	0	0	0	0	0	0	0	0	0	0	0	0	0	0	0
CCOC1CC(c2cc(NS(=O)(=O)C(F)(F)F)c(C)cc2C)=NO1 (stereo not drawn) [Compound 318]	80	100	30	40	60	70	0	10	30	90	30	70	10	70	80	100
Cc1c(C(=O)N(C)C)cc(NS(=O)(=O)C(F)(F)F)c(Cl)c1F [Compound 320]	80	100	20	70	20	50	0	0	30	70	0	0	0	40	50	100
Cc1c(C(=O)N2CCOCC2)cc(NS(=O)(=O)C(F)(F)F)c(Cl)c1F [Compound 321]	70	100	20	40	80	90	0	50	40	80	0	70	30	40	90	100
Cc1cc(C)c(C2=NOC(OCC(C)C)C2)cc1NS(=O)(=O)C(F)(F)F (stereo not drawn) [Compound 322]	0	90	20	30	0	20	0	30	10	30	0	70	0	40	40	90
CCCCOC1CC(c2cc(NS(=O)(=O)C(F)(F)F)c(C)cc2C)=NO1 (stereo not drawn) [Compound 323]	50	90	0	30	20	90	20	30	50	60	0	30	0	20	90	100
Cc1c(C(=O)N2CCOCC2)cc(N(COC(=O)C(C)(C)C)S(=O)(=O)C(F)(F)F)c(C)c1C [Compound 324, [[(Trifluoromethyl)sulfonyl][2,3,4-trimethyl-5-(4-morpholinylcarbonyl)phenyl]amino]methyl 2,2-dimethylpropanoate]	80	100	50	60	60	90	20	40	30	50	20	30	0	30	100	100
CCOC(=O)N(c1cc(C(=O)N2CCOCC2)c(C)c(C)c1C)S(=O)(=O)C(F)(F)F [Compound 325]	100	100	50	80	20	70	0	70	20	50	0	40	0	60	80	100
Cc1c(NS(=O)(=O)C(F)(F)F)cc(C(=O)N2CCCCC2)c(C)c1C [Compound 326]	90	90	70	70	80	80	10	10	30	70	0	0	0	30	90	100
Cc1c(NS(=O)(=O)C(F)(F)F)cc(C(=O)N2CC(C)OC(C)C2)c(C)c1C (stereo not drawn) [Compound 327]	50	90	60	60	0	70	0	70	10	30	0	30	0	30	90	90
Cc1c(NS(=O)(=O)C(F)(F)F)cc(C(=O)N2CC(C)OC(C)C2)c(C)c1C (stereo not drawn) [Compound 328]	40	80	60	60	20	90	0	30	10	60	20	30	30	60	100	100
